Assay results reported in patent publication US20100285959A1, “HERBICIDAL MIXTURES” (priority 2006, published 2010).

What was measured:
[1] = test system: common lambsquarters (CHEAL); assay: Test 21 growth chamber, postemergence; format: in vivo, Chenopodium album; details: 19 DAA
Method: (§1) A test was conducted to evaluate the effects on winter barley (HORVW, Hordeum vulgare L.), winter wheat (TRZAW, Triticum aestivum L.), and several weed species, of mixtures of Compound 2 with the commercial herbicide (2,4-dichlorophenoxy)acetic acid (2,4-D), an auxin mimic. […] Plants were treated postemergence at the 2-4 leaf growth stage, and each treatment was replicated one time. […] Plants were watered as needed. […] Results are from single replicates.

[2] = test system: redroot pigweed (AMARE); assay: Test 21 growth chamber, postemergence; format: in vivo, Amaranthus retroflexus; details: 19 DAA
Method: as §1

[3] = test system: common lambsquarters (CHEAL); assay: Test 22 growth chamber, postemergence; format: in vivo, Chenopodium album; details: 25 DAA
Method: as §1, with “species” for “species,”, “herbicides” for “herbicide”, “(2,4-D) and (4-chloro-2-methylphenoxy)acetic acid (MCPA),” for “(2,4-D), an”, “mimics.” for “mimic.”, “stage, except KCHSC, SASKR” for “stage,”, “STEME which were in the 4-8 leaf growth stage. Each” for “each”

[4] = test system: Russian thistle (SASKR); assay: Test 22 growth chamber, postemergence; format: in vivo, Salsola kali; details: 25 DAA
Method: as §1, with “species” for “species,”, “herbicides” for “herbicide”, “(2,4-D) and (4-chloro-2-methylphenoxy)acetic acid (MCPA),” for “(2,4-D), an”, “mimics.” for “mimic.”, “stage, except KCHSC, SASKR” for “stage,”, “STEME which were in the 4-8 leaf growth stage. Each” for “each”

[5] = test system: common blackjack (BIDPI); assay: Test 12 field trial, preemergence; format: in vivo, Bidens pilosa; parameters: scale not given here; details: Cpd 2 or Cpd 1 62 g a.i./ha, Diuron 2000 g a.i./ha
Description: In early-mid spring season, corn seeds (hybrid ‘Pioneer 3041’) were planted 5 cm deep and sugarcane nodes (variety RB-72.454) were planted 10 cm deep in separate plots in a clay soil having 2.6% organic matter and a pH of 5.6. Plots were 24 m long by 1.5 m wide with rows spaced 80 cm (corn) or 140 cm (sugarcane) apart. Corn seeds were spaced 15 cm apart and sugarcane nodes were spaced 10 cm apart within the rows. At the same time, weed seeds were broadcast over the surface of separate plots without a crop, one weed species per plot. The weed plots were rotary tilled to incorporate the weed seeds to a variety of depths. The field was managed using conventional tillage practices.

[6] = test system: curly dock (RUMCR); assay: Test 3 field trial, emerged weeds before corn planting; format: in vivo, Rumex crispus; details: Cpd 2 100, glyphosate 1540, paraquat 1150 g a.i./ha, alone or combined
Description: (§2) Corn seeds (hybrid ‘Pioneer 33J56’) were planted in early spring season, 3.8 cm deep in a silt loam soil having 2.4% organic matter and a pH of 6. Plots were 6.1 m long by 2.7 m wide with rows spaced 91.4 cm apart. The field was managed using no-till practices. […] Compound 2 and paraquat treatments, alone and in combination, also included a surfactant. Glyphosate, alone and with Compound 2, included ammonium sulfate in the treatment mixture. […] The effects on the weeds in the treated plots and untreated control plots were recorded 30, 42, 46 and 68 days after application. Most of the weed species could not be evaluated at every timing. Corn response was not evaluated because the growth was highly variable depending on the efficacy of the weed control treatments. […] Results are the means of the three replicates.

[7] = test system: red deadnettle (LAMPU); assay: as above; format: in vivo, Lamium purpureum; details: Cpd 2 100, glyphosate 1540, paraquat 1150 g a.i./ha, alone or combined
Description: as §2

[8] = test system: corn (ZEAMD); assay: Test 9 field trial, emerged weeds before corn planting; format: in vivo, Zea mays ssp. indentata; details: 57 DAA; g a.i./ha: Cpd 2 100, Glyphosate 1540, Paraquat 1150
Method: Corn seeds (hybrid ‘Pioneer 34M91 RR’) were planted in mid spring season, about 3.8 cm deep in a silty clay loam soil having a pH of 6.7. Plots were 9.1 m long by 3.0 m. The field was managed using no-till practices. […] Compound 2 and paraquat treatments, alone and in combination, also included a surfactant. Glyphosate, alone and with Compound 2, included ammonium sulfate in the treatment mixture. […] The effects on the weeds in the treated plots and untreated control plots were recorded 7, 14, 23, 30 and 57 days after application. Most of the weed species could not be evaluated at every timing. Corn response was only evaluated 57 days after application. […] Results are the means of the three replicates.

[9] = test system: velvetleaf (ABUTH); assay: Test 17 greenhouse, post- and preemergence; format: in vivo, Abutilon theophrasti; details: 12 DAA
Description: Plants were watered as needed.

[10] = test system: velvetleaf (ABUTH); assay: Test 26 field trial, postemergence; format: in vivo, Abutilon theophrasti
Description: Corn seeds (hybrid ‘Pioneer 31G96’) were planted in mid spring season, 3.8 cm deep in a silt loam soil having 2% organic matter and a pH of 6.6. Plots were 6.1 m long by 3.0 m wide with rows spaced 76 cm apart. Seeds were spaced 15 cm apart within the rows. The field was managed using conventional tillage practices. […] All treatments also included a surfactant. […] Some of the weed species could not be evaluated at every timing. […] Results are the means of the three replicates.

[11] = 2,4-D or MCPA alone 250 g a.i./ha

O=C(O)COc1ccc(Cl)cc1Cl [2,4-D, (2,4-dichlorophenoxy)acetic acid]
Postemergence CHEAL Obs ([1]; 2,4-D alone 125 g a.i./ha): 40 | Postemergence CHEAL Obs ([1]; 2,4-D alone 250 g a.i./ha): 40 | Postemergence AMARE Obs ([2]; 2,4-D alone 125 g a.i./ha): 50 | Postemergence AMARE Obs ([2]; 2,4-D alone 250 g a.i./ha): 50 | Postemergence CHEAL Obs [3, 11]: 60 | Postemergence SASKR Obs [4, 11]: 60

Nc1nc(C2CC2)nc(C(=O)O)c1Cl [Compound 1, 6-amino-5-chloro-2-cyclopropyl-4-pyrimidinecarboxylic acid]
BIDPI Obs ([5]; 15 DAA): 70 | BIDPI Obs ([5]; 29 DAA): 80 | BIDPI Obs ([5]; 48 DAA): 80 | BIDPI Obs ([5]; 61 DAA): 60

COC(=O)c1nc(C2CC2)nc(N)c1Cl [Compound 2, methyl 6-amino-5-chloro-2-cyclopropyl-4-pyrimidinecarboxylate]
RUMCR Obs ([6]; 30 DAA): 62% | RUMCR Obs ([6]; 42 DAA): 37% | RUMCR Obs ([6]; 46 DAA): 54% | RUMCR Obs ([6]; 68 DAA): 67% | LAMPU Obs ([7]; 30 DAA): 87% | LAMPU Obs ([7]; 42 DAA): 35% | LAMPU Obs ([7]; 46 DAA): 100% | Postemergence CHEAL Obs ([1]; Cpd 2 alone 16 g a.i./ha): 60 | ZEAMD Obs [8]: 0% | Obs response, scale 0 to 100 ([9]; Postemergence, 15 g a.i./ha): 29 | Obs response, scale 0 to 100 ([9]; Postemergence, 30 g a.i./ha): 30 | Obs response, scale 0 to 100 ([9]; Postemergence, 45 g a.i./ha): 45 | Obs response, scale 0 to 100 ([9]; Preemergence, 15 g a.i./ha): 10 | Obs response, scale 0 to 100 ([9]; Preemergence, 30 g a.i./ha): 24 | Obs response, scale 0 to 100 ([9]; Preemergence, 45 g a.i./ha): 45 | Postemergence AMARE Obs ([2]; Cpd 2 alone 16 g a.i./ha): 60 | BIDPI Obs ([5]; 15 DAA): 60 | BIDPI Obs ([5]; 29 DAA): 80 | BIDPI Obs ([5]; 48 DAA): 80 | BIDPI Obs ([5]; 61 DAA): 70 | ABUTH Obs ([10]; 14 DAA, 30 g a.i./ha): 86 | ABUTH Obs ([10]; 14 DAA, 45 g a.i./ha): 64 | ABUTH Obs ([10]; 14 DAA, 60 g a.i./ha): 95 | ABUTH Obs ([10]; 28 DAA, 30 g a.i./ha): 80 | ABUTH Obs ([10]; 28 DAA, 45 g a.i./ha): 59 | ABUTH Obs ([10]; 28 DAA, 60 g a.i./ha): 90 | ABUTH Obs ([10]; 56 DAA, 30 g a.i./ha): 40 | ABUTH Obs ([10]; 56 DAA, 45 g a.i./ha): 57 | ABUTH Obs ([10]; 56 DAA, 60 g a.i./ha): 63 | Postemergence CHEAL Obs ([3]; Cpd 2 alone 4 g a.i./ha): 50 | Postemergence CHEAL Obs ([3]; Cpd 2 alone 8 g a.i./ha): 50 | Postemergence CHEAL Obs ([3]; Cpd 2 alone 16 g a.i./ha): 65 | Postemergence SASKR Obs ([4]; Cpd 2 alone 4 g a.i./ha): 50 | Postemergence SASKR Obs ([4]; Cpd 2 alone 8 g a.i./ha): 50 | Postemergence SASKR Obs ([4]; Cpd 2 alone 16 g a.i./ha): 55

O=C(O)CNCP(=O)(O)O [Glyphosate]
RUMCR Obs ([6]; 30 DAA): 75% | RUMCR Obs ([6]; 42 DAA): 61% | RUMCR Obs ([6]; 46 DAA): 82% | RUMCR Obs ([6]; 68 DAA): 93% | LAMPU Obs ([7]; 30 DAA): 70% | LAMPU Obs ([7]; 42 DAA): 52% | LAMPU Obs ([7]; 46 DAA): 97% | ZEAMD Obs [8]: 0%
